Data published in PMC7680126, “Structural asymmetry governs the assembly and GTPase activity of McrBC restriction complexes” (Nature Communications, 2020).

Key:
TgMcrB (full-length) = target: T1, TgMcrB (full-length) (Thermococcus gammatolerans, UniProt C5A3Z3); assay: malachite green phosphate release; assay type: biochemical; settings: 1 mM GTP, 65 °C, pH 8.0, 150 mM KCl, 5 mM MgCl2; no McrC
T1 construct: gene TGAM_0453; full-length, residues 1-613; 6xHis tag cut by HRV 3C (Gly-Pro left); E. coli BL21(DE3); hexamer

TgMcrBC complex = target: T2, TgMcrBC complex (Thermococcus gammatolerans, UniProt C5A3Z3); assay: malachite green phosphate release; assay type: biochemical; settings: 1 mM GTP, 0.1 μM TgMcrC, 65 °C, pH 8.0, 150 mM KCl, 5 mM MgCl2
T2 construct: gene TGAM_0453; full-length McrB (1-613) and McrC (1-458); tags cut by HRV 3C (Gly-Pro left); E. coli; with McrC, endonuclease subunit of McrBC restriction complex (5-methylcytosine restriction system component McrC)
T2 sequence (C5A3Z3 1-613): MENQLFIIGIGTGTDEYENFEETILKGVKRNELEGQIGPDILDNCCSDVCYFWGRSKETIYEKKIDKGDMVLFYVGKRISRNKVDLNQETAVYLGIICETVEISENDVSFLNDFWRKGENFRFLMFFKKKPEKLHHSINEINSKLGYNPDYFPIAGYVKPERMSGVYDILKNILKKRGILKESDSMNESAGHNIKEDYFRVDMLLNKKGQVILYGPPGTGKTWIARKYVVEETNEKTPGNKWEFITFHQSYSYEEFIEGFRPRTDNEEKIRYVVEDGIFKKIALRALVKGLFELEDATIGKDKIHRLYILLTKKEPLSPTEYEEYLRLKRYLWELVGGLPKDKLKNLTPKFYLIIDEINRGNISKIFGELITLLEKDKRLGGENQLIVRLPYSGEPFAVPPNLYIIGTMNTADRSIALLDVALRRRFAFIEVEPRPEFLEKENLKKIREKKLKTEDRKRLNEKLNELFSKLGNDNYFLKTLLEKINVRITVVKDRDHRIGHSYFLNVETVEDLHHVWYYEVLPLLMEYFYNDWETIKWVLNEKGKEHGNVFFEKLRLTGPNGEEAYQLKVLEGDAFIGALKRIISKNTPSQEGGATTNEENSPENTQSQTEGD
T2 sequence (C5A3Z2 1-458 partner): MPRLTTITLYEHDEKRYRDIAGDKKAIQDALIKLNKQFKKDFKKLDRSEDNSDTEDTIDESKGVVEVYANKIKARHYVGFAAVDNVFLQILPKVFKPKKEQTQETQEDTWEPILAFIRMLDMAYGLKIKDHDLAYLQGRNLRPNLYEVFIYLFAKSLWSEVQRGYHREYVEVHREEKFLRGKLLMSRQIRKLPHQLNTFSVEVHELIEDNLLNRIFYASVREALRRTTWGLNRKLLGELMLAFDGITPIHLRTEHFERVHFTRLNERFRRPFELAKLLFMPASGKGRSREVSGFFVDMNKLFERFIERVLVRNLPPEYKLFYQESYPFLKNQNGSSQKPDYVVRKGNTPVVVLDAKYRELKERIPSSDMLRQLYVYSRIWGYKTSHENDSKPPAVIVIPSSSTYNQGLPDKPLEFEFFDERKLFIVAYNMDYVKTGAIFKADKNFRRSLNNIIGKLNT

**Q.** Which “basal GTPase activity” value (TgMcrB (full-length)) does the source give for `Nc1nc2c(ncn2[C@@H]2O[C@H](COP(=O)(O)OP(=O)(O)OP(=O)(O)O)[C@@H](O)[C@H]2O)c(=O)[nH]1` [GTP] here?
**A.** Its value is “Alanine substitutions at Asn410 and Asp413 in full-length TgMcrB abolish both basal and McrC-stimulated GTPase activity”.

**Q.** What about the “McrC-stimulated GTPase activity” value (TgMcrBC complex) of the same molecule?
**A.** The value was “Purified TgMcrC similarly stimulates TgMcrB’s basal GTPase activity”.
